Experiments:
[1] = tested on: recombinant human anti-SARS-CoV antibody 03-018; type: binding; set-up: Binding of antibody 03-018 to linear peptides of the N protein of SARS-CoV Urbani / Binding of antibody 03-018 to looped/cyclic peptides of the N protein of SARS-CoV Urbani: unit not given here
[2] = tested on: antibodies in sera from SARS patients (sera 1a, 1b, 2, 6, 37, 62, London, SARS-yellow, SARS-green); type: binding, human; set-up: Binding of serum 6 to linear peptides of protein X1 of SARS-CoV Urbani / Binding of serum 37 to linear peptides of protein X1 of SARS-CoV Urbani / Binding of serum 6 to looped/cyclic peptide (PEPSCAN-ELISA) / Binding of serum 37 to looped/cyclic peptide (PEPSCAN-ELISA) / Binding of serum 37 to looped/cyclic peptides of protein X1 of SARS-CoV Urbani / Binding of serum 6 to linear peptides of protein X2 / Binding of serum 37 to linear peptides of protein X2 / Binding of serum 37 to looped/cyclic peptides of protein X2 of SARS-CoV Urbani / Binding of serum 6 to linear peptides of protein M of SARS-CoV Urbani / Binding of serum 37 to linear peptides of protein M of SARS-CoV Urbani / Binding of serum 6 to looped/cyclic peptides of protein M of SARS-CoV Urbani / Binding of serum 37 to looped/cyclic peptides of protein M of SARS-CoV Urbani / Binding of serum 6 to linear peptides of protein X3 of SARS-CoV Urbani / Binding of serum 37 to linear peptides of protein X3 of SARS-CoV Urbani / Binding of serum 37 to looped/cyclic peptides of protein X3 of SARS-CoV Urbani / Binding of serum 6 to linear peptides of protein X4 of SARS-CoV Urbani / Binding of serum 37 to linear peptides of protein X4 of SARS-CoV Urbani / Binding of serum 37 to looped/cyclic peptides of protein X4 of SARS-CoV Urbani / Binding of serum 6 to linear peptides of protein X5 of SARS-CoV Urbani / Binding of serum 37 to linear peptides of protein X5 of SARS-CoV Urbani / Binding of serum 37 to looped/cyclic peptides of protein X5 of SARS-CoV Urbani / Binding of serum 6 to linear peptides of protein N of SARS-CoV Urbani / Binding of serum 37 to linear peptides of protein N of SARS-CoV Urbani / Binding of serum 6 to linear peptide (PEPSCAN-ELISA) / Binding of serum 1a to looped/cyclic peptides of protein N of SARS-CoV Urbani / Binding of serum 1b to looped/cyclic peptides of protein N of SARS-CoV Urbani / Binding of serum 2 to looped/cyclic peptides of protein N of SARS-CoV Urbani / Binding of serum 6 to looped/cyclic peptides of protein N of SARS-CoV Urbani / Binding of serum 37 to looped/cyclic peptides of protein N of SARS-CoV Urbani / Binding of serum 62 to looped/cyclic peptides of protein N of SARS-CoV Urbani / Binding of serum London to looped/cyclic peptides of protein N of SARS-CoV Urbani / Binding of serum SARS-green to looped/cyclic peptides of protein N of SARS-CoV Urbani: unit not given here
[3] = tested on: rabbit serum obtained by immunizing a rabbit with the SARS-CoV strain Frankfurt 1; type: binding; set-up: Binding of a rabbit serum to linear peptides / Binding of a rabbit serum to looped peptides / Rabbit serum linear peptides / Rabbit serum looped peptides / Binding of a rabbit serum to linear peptides of protein N of SARS-CoV Urbani (Rabbit serum linear peptides) / Binding of a rabbit serum to looped/cyclic peptides of protein N of SARS-CoV Urbani (Rabbit serum looped peptides): unit not given here
[4] = tested on: control sera (pooled serum of ten healthy LUMC hospital workers; commercial negative donor pooled serum from the Dutch bloodbank); type: binding, human; set-up: Binding of Control serum LUMC to linear peptides / Binding of Control serum Blood-bank to linear peptides / Binding of Control serum LUMC to looped peptides / Binding of Control Serum Blood-Bank to Looped peptides / Binding of Control serum LUMC to linear peptides of the protein M of SARS-CoV Urbani / Binding of Control serum Blood-bank to linear peptides of the protein M of SARS-CoV Urbani / Binding of Control serum LUMC to looped peptides of the protein M of SARS-CoV Urbani / Binding of Control Serum Blood-Bank to Looped peptides of the protein M of SARS-CoV Urbani: unit not given here

## RRVRGGDGKMKELSP
[1]
  Binding of antibody 03-018 to linear peptides of the N protein of SARS-CoV Urbani: 0.1
  Binding of antibody 03-018 to looped/cyclic peptides of the N protein of SARS-CoV Urbani: 0.2
[2]
  Binding of serum 1a to linear peptides of protein N of SARS-CoV Urbani: 0.3
  Binding of serum 1a to looped/cyclic peptides of protein N of SARS-CoV Urbani: 0.3
  Binding of serum 1b to linear peptides of protein N of SARS-CoV Urbani: 0.2
  Binding of serum 1b to looped/cyclic peptides of protein N of SARS-CoV Urbani: 0.1
  Binding of serum 2 to linear peptides of protein N of SARS-CoV Urbani: 0.4
  Binding of serum 2 to looped/cyclic peptides of protein N of SARS-CoV Urbani: 0.3
  Binding of serum 6 to linear peptides of protein N of SARS-CoV Urbani: 0.2
  Binding of serum 6 to looped/cyclic peptides of protein N of SARS-CoV Urbani: 0.2
  Binding of serum 37 to linear peptides of protein N of SARS-CoV Urbani: 0.7
  Binding of serum 37 to looped/cyclic peptides of protein N of SARS-CoV Urbani: 0.4
  Binding of serum 62 to linear peptides of protein N of SARS-CoV Urbani: 0.8
  Binding of serum 62 to looped/cyclic peptides of protein N of SARS-CoV Urbani: 0.3
  Binding of serum London to linear peptides of protein N of SARS-CoV Urbani: 0.6
  Binding of serum London to looped/cyclic peptides of protein N of SARS-CoV Urbani: 0.4
  Binding of serum SARS-green to linear peptides of protein N of SARS-CoV Urbani: 0.4
  Binding of serum SARS-green to looped/cyclic peptides of protein N of SARS-CoV Urbani: 0.1
  Binding of serum SARS-yellow to linear peptides of protein N of SARS-CoV Urbani: 0.8
  Binding of serum SARS-yellow to looped/cyclic peptides of protein N of SARS-CoV Urbani: 0.3
[3]
  Binding of a rabbit serum to linear peptides of protein N of SARS-CoV Urbani (Rabbit serum linear peptides): 0.2
  Binding of a rabbit serum to looped/cyclic peptides of protein N of SARS-CoV Urbani (Rabbit serum looped peptides): 0.4
[4]
  Binding of Control Serum Blood-Bank to Looped peptides: 0.6
  Binding of Control serum Blood-bank to linear peptides: 0.9
  Binding of Control serum LUMC to linear peptides: 0.9
  Binding of Control serum LUMC to looped peptides: 0.6

## RSAPRITFGGPTDST
[1]
  Recognition of the peptide by antibody 03-018: recognized
[2]
  Binding of serum 1a to linear peptides of protein N of SARS-CoV Urbani: 0.2
  Binding of serum 1a to looped/cyclic peptides of protein N of SARS-CoV Urbani: 0.3
  Binding of serum 1b to linear peptides of protein N of SARS-CoV Urbani: 0.1
  Binding of serum 1b to looped/cyclic peptides of protein N of SARS-CoV Urbani: 0.2
  Binding of serum 2 to linear peptides of protein N of SARS-CoV Urbani: 0.1
  Binding of serum 2 to looped/cyclic peptides of protein N of SARS-CoV Urbani: 0.3
  Binding of serum 6 to linear peptides of protein N of SARS-CoV Urbani: 0.1
  Binding of serum 6 to looped/cyclic peptides of protein N of SARS-CoV Urbani: 0.2
  Binding of serum 37 to linear peptides of protein N of SARS-CoV Urbani: 0.6
  Binding of serum 37 to looped/cyclic peptides of protein N of SARS-CoV Urbani: 0.5
  Binding of serum 62 to linear peptides of protein N of SARS-CoV Urbani: 0.6
  Binding of serum 62 to looped/cyclic peptides of protein N of SARS-CoV Urbani: 0.4
  Binding of serum London to linear peptides of protein N of SARS-CoV Urbani: 0.5
  Binding of serum London to looped/cyclic peptides of protein N of SARS-CoV Urbani: 0.3
  Binding of serum SARS-green to linear peptides of protein N of SARS-CoV Urbani: 0.4
  Binding of serum SARS-green to looped/cyclic peptides of protein N of SARS-CoV Urbani: 0.4
  Binding of serum SARS-yellow to linear peptides of protein N of SARS-CoV Urbani: 0.5
  Binding of serum SARS-yellow to looped/cyclic peptides of protein N of SARS-CoV Urbani: 0.5
[3]
  Binding of a rabbit serum to linear peptides of protein N of SARS-CoV Urbani (Rabbit serum linear peptides): 0.3
  Binding of a rabbit serum to looped/cyclic peptides of protein N of SARS-CoV Urbani (Rabbit serum looped peptides): 0.7
[4]
  Binding of Control Serum Blood-Bank to Looped peptides: 0.6
  Binding of Control serum Blood-bank to linear peptides: 0.6
  Binding of Control serum LUMC to linear peptides: 0.5
  Binding of Control serum LUMC to looped peptides: 0.6

## RSRGNSRNSTPGSSR
[1]
  Binding of antibody 03-018 to linear peptides of the N protein of SARS-CoV Urbani: 0.1
  Binding of antibody 03-018 to looped/cyclic peptides of the N protein of SARS-CoV Urbani: 0.2
[2]
  Binding of serum 1a to linear peptide (PEPSCAN-ELISA): 0.7
  Binding of serum 1a to looped/cyclic peptides of protein N of SARS-CoV Urbani: 0.3
  Binding of serum 1b to linear peptide (PEPSCAN-ELISA): 0.4
  Binding of serum 1b to looped/cyclic peptides of protein N of SARS-CoV Urbani: 0.1
  Binding of serum 2 to linear peptide (PEPSCAN-ELISA): 0.2
  Binding of serum 2 to looped/cyclic peptides of protein N of SARS-CoV Urbani: 0.2
  Binding of serum 6 to linear peptide (PEPSCAN-ELISA): 0.2
  Binding of serum 6 to looped/cyclic peptides of protein N of SARS-CoV Urbani: 0.2
  Binding of serum 37 to linear peptide (PEPSCAN-ELISA): 0.7
  Binding of serum 37 to looped/cyclic peptides of protein N of SARS-CoV Urbani: 0.2
  Binding of serum 62 to linear peptide (PEPSCAN-ELISA): 0.6
  Binding of serum 62 to looped/cyclic peptides of protein N of SARS-CoV Urbani: 0.1
  Binding of serum London to linear peptide (PEPSCAN-ELISA): 0.5
  Binding of serum London to looped/cyclic peptides of protein N of SARS-CoV Urbani: 0.2
  Binding of serum SARS-green to linear peptide (PEPSCAN-ELISA): 0.2
  Binding of serum SARS-green to looped/cyclic peptides of protein N of SARS-CoV Urbani: 0.1
  Binding of serum SARS-yellow to linear peptide (PEPSCAN-ELISA): 0.6
  Binding of serum SARS-yellow to looped/cyclic peptides of protein N of SARS-CoV Urbani: 0.1
[3]
  Binding of a rabbit serum to linear peptides of protein N of SARS-CoV Urbani (Rabbit serum linear peptides): 0.4
  Binding of a rabbit serum to looped/cyclic peptides of protein N of SARS-CoV Urbani (Rabbit serum looped peptides): 1.1
[4]
  Binding of Control Serum Blood-Bank to Looped peptides: 0.3
  Binding of Control serum Blood-bank to linear peptides: 0.8
  Binding of Control serum LUMC to linear peptides: 0.6
  Binding of Control serum LUMC to looped peptides: 0.3

## SAAEASKKPRQKRTA
[1]
  Binding of antibody 03-018 to linear peptides of the N protein of SARS-CoV Urbani: 0.1
  Binding of antibody 03-018 to looped/cyclic peptides of the N protein of SARS-CoV Urbani: 0.2
[2]
  Binding of serum 1a to looped/cyclic peptides of protein N of SARS-CoV Urbani: 0.2
  Binding of serum 1b to looped/cyclic peptides of protein N of SARS-CoV Urbani: 0.1
  Binding of serum 2 to looped/cyclic peptides of protein N of SARS-CoV Urbani: 0.2
  Binding of serum 6 to looped/cyclic peptides of protein N of SARS-CoV Urbani: 0.1
  Binding of serum 37 to looped/cyclic peptides of protein N of SARS-CoV Urbani: 0.4
  Binding of serum 62 to looped/cyclic peptides of protein N of SARS-CoV Urbani: 0.3
  Binding of serum London to looped/cyclic peptides of protein N of SARS-CoV Urbani: 0.3
  Binding of serum SARS-green to looped/cyclic peptides of protein N of SARS-CoV Urbani: 0.1
  Binding of serum SARS-yellow to looped/cyclic peptides of protein N of SARS-CoV Urbani: 0.2
  Recognition of the peptide by sera of SARS-CoV infected individuals, and form (linear, looped/cyclic) in which it is recognized: recognized in linear form
[3]
  Binding of a rabbit serum to linear peptides of protein N of SARS-CoV Urbani (Rabbit serum linear peptides): 0.2
  Binding of a rabbit serum to looped/cyclic peptides of protein N of SARS-CoV Urbani (Rabbit serum looped peptides): 0.3
[4]
  Binding of Control Serum Blood-Bank to Looped peptides: 0.4
  Binding of Control serum Blood-bank to linear peptides: 0.8
  Binding of Control serum LUMC to linear peptides: 0.8
  Binding of Control serum LUMC to looped peptides: 0.4

Reference: patent US20070128217A1 (priority 2003, published 2007)
